Test results published in PubChem BioAssay (NCI).
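Grown in 96-well plates, cells were treated for 48 hours with each compound at five concentrations. Insufficient inhibition: endpoint recorded as highest concentration tested. Abbreviation: GI50, concentration required for 50% inhibition of growth. TGI marks complete inhibition of growth.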 *1 amine or outer side, *2 acyl side, *3 side chain or, on linkers, in order; H or OH if unused. Where a SMILES comes first, the peptide text is derived from it. [ ]: non-standard residue; d: D form. The star is where a group is joined. X41 = CCC(=O)CC1CC(C)CC(C(=O)[*:2])N1[*:1]; X40 = CCCCCCCCC(C)C(=O)*; Aib = CC(C)(N)C(=O)O; X42 = CC(CN(C)CCO)N*

Columns and labels:
Assay in all cases: NCI-60 cell line screen, 48 h
COLO 205 colon = test system: COLO 205 colon
MCF7 breast = test system: MCF7 breast
A498 renal = test system: A498 renal
CCRF-CEM leukemia = test system: CCRF-CEM leukemia
HS 578T breast = test system: HS 578T breast
SN12C renal = test system: SN12C renal
SNB-19 CNS = test system: SNB-19 CNS
EKVX NSCLC = test system: EKVX NSCLC
HOP-92 NSCLC = test system: HOP-92 NSCLC
PC-3 prostate = test system: PC-3 prostate
OVCAR-8 ovarian = test system: OVCAR-8 ovarian
K-562 leukemia = test system: K-562 leukemia
HCT-116 colon = test system: HCT-116 colon
OVCAR-5 ovarian = test system: OVCAR-5 ovarian
UACC-257 melanoma = test system: UACC-257 melanoma
NCI-H226 lung = test system: NCI-H226 lung
SF-539 CNS = test system: SF-539 CNS
KM12 colon = test system: KM12 colon
NCI-H23 lung = test system: NCI-H23 lung
HOP-62 NSCLC = test system: HOP-62 NSCLC
SK-MEL-28 melanoma = test system: SK-MEL-28 melanoma
SF-295 CNS = test system: SF-295 CNS
U251 CNS = test system: U251 CNS
CAKI-1 renal = test system: CAKI-1 renal
RPMI-8226 leukemia = test system: RPMI-8226 leukemia
SNB-75 CNS = test system: SNB-75 CNS
MDA-MB-231 breast = test system: MDA-MB-231 breast
HCC-2998 colon = test system: HCC-2998 colon
DU-145 prostate = test system: DU-145 prostate
786-0 renal = test system: 786-0 renal
MDA-MB-435 = test system: MDA-MB-435
OVCAR-4 ovarian = test system: OVCAR-4 ovarian
HCT-15 colon = test system: HCT-15 colon
IGROV1 ovarian = test system: IGROV1 ovarian
M14 melanoma = test system: M14 melanoma
MALME-3M melanoma = test system: MALME-3M melanoma
T-47D breast = test system: T-47D breast
SW-620 colon = test system: SW-620 colon
TK-10 renal = test system: TK-10 renal
A549 NSCLC = test system: A549 NSCLC
SF-268 CNS = test system: SF-268 CNS
SK-MEL-2 melanoma = test system: SK-MEL-2 melanoma
OVCAR-3 ovarian = test system: OVCAR-3 ovarian
UO-31 renal = test system: UO-31 renal
ACHN renal = test system: ACHN renal
LOX IMVI melanoma = test system: LOX IMVI melanoma
UACC-62 melanoma = test system: UACC-62 melanoma
NCI/ADR-RES ovarian = test system: NCI/ADR-RES ovarian
NCI-H460 lung = test system: NCI-H460 lung
MOLT-4 leukemia = test system: MOLT-4 leukemia
SR leukemia = test system: SR leukemia
SK-OV-3 ovarian = test system: SK-OV-3 ovarian
HL-60(TB) leukemia = test system: HL-60(TB) leukemia
SK-MEL-5 melanoma = test system: SK-MEL-5 melanoma
NCI-H522 lung = test system: NCI-H522 lung
HT29 colon = test system: HT29 colon
RXF 393 renal = test system: RXF 393 renal
BT-549 breast = test system: BT-549 breast

CC/C=C\CCC/C=C1/C(=O)C=C[C@@H]1C/C=C\CCCC(=O)O
GI50 (COLO 205 colon): 5.83 µM | TGI (COLO 205 colon): 18.4 µM | GI50 (MCF7 breast): 3.07 µM | TGI (MCF7 breast): 16.8 µM | GI50 (A498 renal): 18.4 µM | TGI (A498 renal): 33.9 µM | GI50 (CCRF-CEM leukemia): 2840 nM | TGI (CCRF-CEM leukemia): 16.2 µM | GI50 (HS 578T breast): 13.7 µM | TGI (HS 578T breast): 59.3 µM | GI50 (SN12C renal): 3.05 µM | TGI (SN12C renal): 8.5 µM | GI50 (SNB-19 CNS): 5.45 µM | TGI (SNB-19 CNS): 20 µM | GI50 (EKVX NSCLC): 4.02 µM | TGI (EKVX NSCLC): 14 µM | GI50 (HOP-92 NSCLC): 13.2 µM | TGI (HOP-92 NSCLC): 27000 nM | GI50 (PC-3 prostate): 3.64 µM | TGI (PC-3 prostate): 9.82 µM | GI50 (OVCAR-8 ovarian): 2960 nM | TGI (OVCAR-8 ovarian): 9.87 µM | GI50 (K-562 leukemia): 2500 nM | TGI (K-562 leukemia): 37.9 µM | GI50 (HCT-116 colon): 2530 nM | TGI (HCT-116 colon): 5.79 µM | GI50 (OVCAR-5 ovarian): 4.85 µM | TGI (OVCAR-5 ovarian): 15.3 µM | GI50 (UACC-257 melanoma): 10.5 µM | TGI (UACC-257 melanoma): 23.7 µM | GI50 (NCI-H226 lung): 4.35 µM | TGI (NCI-H226 lung): 30.1 µM | GI50 (SF-539 CNS): 3.52 µM | TGI (SF-539 CNS): 12.4 µM | GI50 (KM12 colon): 2460 nM | TGI (KM12 colon): 6.62 µM | GI50 (NCI-H23 lung): 3.37 µM | TGI (NCI-H23 lung): 13.7 µM | GI50 (HOP-62 NSCLC): 7.61 µM | TGI (HOP-62 NSCLC): 22 µM | GI50 (SK-MEL-28 melanoma): 3.13 µM | TGI (SK-MEL-28 melanoma): 10.6 µM | GI50 (SF-295 CNS): 2870 nM | TGI (SF-295 CNS): 8.13 µM | GI50 (U251 CNS): 3.7 µM | TGI (U251 CNS): 13.6 µM | GI50 (CAKI-1 renal): 3.43 µM | TGI (CAKI-1 renal): 11.9 µM | GI50 (RPMI-8226 leukemia): 3.28 µM | TGI (RPMI-8226 leukemia): 11 µM | GI50 (SNB-75 CNS): 18 µM | TGI (SNB-75 CNS): 44.9 µM | GI50 (MDA-MB-231 breast): 5.55 µM | TGI (MDA-MB-231 breast): 22.5 µM | GI50 (HCC-2998 colon): 1800 nM | TGI (HCC-2998 colon): 3390 nM | GI50 (DU-145 prostate): 11.3 µM | TGI (DU-145 prostate): 23.8 µM | GI50 (786-0 renal): 4.37 µM | TGI (786-0 renal): 15.1 µM | GI50 (MDA-MB-435): 2010 nM | TGI (MDA-MB-435): 4.99 µM | GI50 (OVCAR-4 ovarian): 6.93 µM | TGI (OVCAR-4 ovarian): 22.1 µM | GI50 (HCT-15 colon): 1930 nM | TGI (HCT-15 colon): 4.52 µM | GI50 (IGROV1 ovarian): 4.12 µM | TGI (IGROV1 ovarian): 15.9 µM | GI50 (M14 melanoma): 3.89 µM | TGI (M14 melanoma): 17.3 µM | GI50 (MALME-3M melanoma): 8.66 µM | TGI (MALME-3M melanoma): 26.6 µM | GI50 (T-47D breast): 10.1 µM | TGI (T-47D breast): 23.3 µM | GI50 (SW-620 colon): 4.46 µM | TGI (SW-620 colon): 18 µM | GI50 (TK-10 renal): 5.04 µM | TGI (TK-10 renal): 17.2 µM | GI50 (A549 NSCLC): 12.8 µM | TGI (A549 NSCLC): 32.7 µM | GI50 (SF-268 CNS): 5.03 µM | TGI (SF-268 CNS): 22.1 µM | GI50 (SK-MEL-2 melanoma): 4.82 µM | TGI (SK-MEL-2 melanoma): 18.3 µM | GI50 (OVCAR-3 ovarian): 3.36 µM | TGI (OVCAR-3 ovarian): 10.9 µM | GI50 (UO-31 renal): 2160 nM | TGI (UO-31 renal): 5.58 µM | GI50 (ACHN renal): 1890 nM | TGI (ACHN renal): 3.61 µM | GI50 (LOX IMVI melanoma): 1460 nM | TGI (LOX IMVI melanoma): 3.22 µM | GI50 (UACC-62 melanoma): 2220 nM | TGI (UACC-62 melanoma): 4.93 µM | GI50 (NCI/ADR-RES ovarian): 2960 nM | TGI (NCI/ADR-RES ovarian): 11.8 µM | GI50 (NCI-H460 lung): 4.49 µM | TGI (NCI-H460 lung): 25.3 µM | GI50 (MOLT-4 leukemia): 2440 nM | TGI (MOLT-4 leukemia): 8.93 µM | GI50 (SR leukemia): 1920 nM | TGI (SR leukemia): 8.57 µM | GI50 (SK-OV-3 ovarian): 14.4 µM | TGI (SK-OV-3 ovarian): 31.3 µM | GI50 (HL-60(TB) leukemia): 2750 nM | TGI (HL-60(TB) leukemia): 7.41 µM | GI50 (SK-MEL-5 melanoma): 1720 nM | TGI (SK-MEL-5 melanoma): 3.31 µM | GI50 (NCI-H522 lung): 2020 nM | TGI (NCI-H522 lung): 4.78 µM | GI50 (HT29 colon): 2500 nM | TGI (HT29 colon): 5.27 µM | GI50 (RXF 393 renal): 3.68 µM | TGI (RXF 393 renal): 10.3 µM

CCCCCCCCC(C)C(=O)N1CCCC1C(=O)N1C(CC(=O)CC)CC(C)CC1C(=O)NC(C)C(=O)NC(C)(C)C(=O)NC(C)(C)C(=O)NC(C(=O)NC(C)C(=O)NC(C)(C)C(=O)NC(C)(C)C(=O)NC(C)CN(C)CCO)C(C)CC (centres undefined) (X40-P[X41]A[Aib][Aib]IA[Aib][Aib]-X42; configuration not given here)
TGI (HOP-92 NSCLC): 43.5 nM | TGI (UACC-257 melanoma): 2.5 µM | TGI (NCI-H226 lung): 1.22 µM | TGI (NCI-H23 lung): 1.05 µM | TGI (BT-549 breast): 6.63 µM

c1ccc2c3nnc(c2c1)SCCSCCSc1nnc(c2ccccc12)SCCSCCS3
TGI (COLO 205 colon): > 100 µM | TGI (HS 578T breast): > 100 µM | TGI (SN12C renal): > 100 µM | TGI (EKVX NSCLC): > 100 µM | TGI (HOP-92 NSCLC): > 100000 nM | TGI (PC-3 prostate): > 100 µM | TGI (OVCAR-8 ovarian): > 100 µM | TGI (UACC-257 melanoma): > 100 µM | TGI (HOP-62 NSCLC): > 100 µM | TGI (SF-295 CNS): > 100 µM | TGI (SNB-75 CNS): > 100 µM | TGI (MDA-MB-231 breast): > 100 µM | TGI (OVCAR-4 ovarian): > 100 µM | TGI (HCT-15 colon): > 100 µM | TGI (IGROV1 ovarian): > 100 µM | TGI (M14 melanoma): > 100 µM | TGI (MALME-3M melanoma): > 100 µM | TGI (T-47D breast): > 100 µM | TGI (SW-620 colon): > 100 µM | TGI (A549 NSCLC): > 100 µM | TGI (SF-268 CNS): > 100 µM | TGI (SK-MEL-2 melanoma): > 100 µM | TGI (OVCAR-3 ovarian): > 100 µM | TGI (ACHN renal): > 100 µM | TGI (LOX IMVI melanoma): > 100 µM | TGI (UACC-62 melanoma): > 100 µM | TGI (NCI/ADR-RES ovarian): > 100 µM | TGI (NCI-H460 lung): > 100 µM | TGI (MOLT-4 leukemia): > 100 µM | TGI (SR leukemia): > 100 µM | TGI (SK-OV-3 ovarian): > 100 µM | TGI (SK-MEL-5 melanoma): > 100 µM | TGI (NCI-H522 lung): > 100 µM | TGI (HT29 colon): > 100 µM

Cc1ccc2c(O)c3c(cc2c1)C(=O)c1c2c(cc(O)c1C3=O)C1(C)OC(O2)C(O)C(N(C)C)C1O (centres undefined)
TGI (COLO 205 colon): 1.91 µM | TGI (A498 renal): 2.37 µM | TGI (HOP-92 NSCLC): 2220 nM | TGI (K-562 leukemia): 0.442 µM | TGI (OVCAR-5 ovarian): 3.73 µM | TGI (KM12 colon): 2.77 µM | TGI (HCC-2998 colon): 2340 nM | TGI (DU-145 prostate): 2.23 µM | TGI (786-0 renal): 1.6 µM | TGI (HCT-15 colon): 2.44 µM | TGI (TK-10 renal): 3.1 µM | TGI (SF-268 CNS): 81 µM | TGI (OVCAR-3 ovarian): 1.59 µM | TGI (ACHN renal): 1.88 µM | TGI (NCI/ADR-RES ovarian): 2.42 µM

CC(=O)OCC(=O)[C@@]1(O)CC[C@H]2[C@@H]3CCC4=CC(=O)C=C[C@]4(C)[C@@]3(F)[C@@H](O)C[C@@]21C
TGI (PC-3 prostate): > 100 µM
